Assay results reported in patent US7427617B2, “Morpoline-bridged indazole derivatives” (Bayer Healthcare AG, priority 2002, dated 2008).

System: primary cortical neurons
Experiment: Increase of cGMP in primary cortical neurons
Assay type: cell-based
Conditions: 0.1 μM test substance; rat primary cortical neurons; IBMX 100 μM; 20 min at 37° C.; cGMP by EIA
Protocol: Increase of cGMP in Primary Cortical Neurons
Rat embryos (embryonic day 17-19) are decapitated, and the cerebrum is removed and incubated with 5 ml of papain solution and 250 μl of DNAse (papain kit from Cell-System) at 37° C. for 30 min, homogenized using a Pasteur pipette and centrifuged at 1200 rpm for 5 min. The supernatant is removed, the cell pellet resuspended (in 2.7 ml of EBSS [Earl's balanced salt solution], 300 μl of ovomucoid/albumin (conc.) solution, 150 μl of DNAse; papain kit from Cell-System), layered over 5 ml of ovomucoid/albumin solution and centrifuged at 700 rpm for 6 min. The supernatant is removed, the cells are resuspended in cultivation medium (Gibco neurobasal medium, B27 Supplement 50×1 ml/100 ml, 2 mM L-glutamine), counted (approx. 150 000 cells/well) and plated out on poly-D-lysine-coated 96-well plates (Costar) with 200 μl/well. After 6-7 days at 37° C. (5% CO2), the neurons are freed of culture medium and washed once with assay buffer (154 mM NaCl, 5.6 mM KCl, 2.3 mM CaCl22H2O, 1 mM MgCl2, 5.6 mM glucose, 8.6 mM HEPES (4-(2-hydroxyethyl)piperazine-1-ethanesulfonic acid), pH=7.4). […] After incubation at 37° C. for 20 min, the assay buffer is replaced by 200 μl/well of lysis buffer (cGMP EIA RPN 226 from Amersham Pharmacia Biotech), and the cGMP content of the lystates is determined using an EIA assay kit.

Nc1nc(-c2nn(Cc3ccccc3F)c3ccccc23)ncc1N1C2CCCC1COC2 [Example 1, 2-[1-(2-Fluorobenzyl)-1H-indazol-3-yl]-5-(3-oxa-9-azabicyclo[3.3.1]non-9-yl)-4pyrimidinylamine]
increase in cGMP: statistically significant increase in cGMP
